Laboratory results: patent publication US8258115B2, “Stable salts of S-adenosylmethionine and process for the preparation thereof” (priority 2007, dated 2012)

Legend:
Assay type in all cases: physicochemical
[1] = Stability test in thermostated heaters at 40° C. and 75% R.H., active ingredient %; conditions: heat-sealed aluminium/aluminium bags
Protocol: (§1) In the following Tables 2-13, the percentage values are repotted which were obtained in the stability tests carried out on the products of examples 1-6. The stability tests were carried out in thermostated heaters at 40° C. and 75% R.H (tables 2-7) as well as 25° C. and 60% R.H. (tables 8-13), preserving the samples in heat-sealed aluminium/aluminium bags according to the following criteria: the active ingredient % was determined for every sampling point taken under consideration.

[2] = Stability test in thermostated heaters at 25° C. and 60% R.H., active ingredient %; conditions: heat-sealed aluminium/aluminium bags
Protocol: as §1

[3] = Degradation of the active stereoisomer S,S at 40° C. and 75% R.H.
Protocol: (§2) In the following Tables 14-25, the percentage values are reported of the degradation of the active stereoisomer S,S calculated at 40° C. and 75% R.H. (Tables 14-19) and at 25° C. and 65% R.H.

[4] = Degradation of the active stereoisomer S,S at 25° C. and 65% R.H.
Protocol: as §2

[5] = Moisture % K.F. of the stability samples; conditions: sample used in the stability test
Protocol: as §1, with “the active ingredient % was determined for every sampling point taken under consideration.” left out

Row | Structure (SMILES) | stability test percentage value (active ingredient %), 30 days [1] [%] | stability test percentage value (active ingredient %), 60 days [1] [%] | stability test percentage value (active ingredient %), 90 days [1] [%] | stability test percentage value (active ingredient %), 120 days [1] [%] | stability test percentage value (active ingredient %), 180 days [1] [%] | stability test percentage value (active ingredient %), 30 days [2] [%] | stability test percentage value (active ingredient %), 90 days [2] [%] | stability test percentage value (active ingredient %), 180 days [2] [%] | stability test percentage value (active ingredient %), 360 days [2] [%] | stability test percentage value (active ingredient %), 720 days [2] [%] | percentage of active S,S stereoisomer remaining ([3]; 30 days) [%] | percentage of active S,S stereoisomer remaining ([3]; 60 days) [%] | percentage of active S,S stereoisomer remaining ([3]; 90 days) [%] | percentage of active S,S stereoisomer remaining ([3]; 120 days) [%] | percentage of active S,S stereoisomer remaining ([3]; 180 days) [%] | percentage of active S,S stereoisomer remaining ([3]; T = 0) [%] | percentage of the active S,S stereoisomer remaining ([4]; 30 days) [%] | percentage of the active S,S stereoisomer remaining ([4]; 90 days) [%] | percentage of the active S,S stereoisomer remaining ([4]; 180 days) [%] | percentage of the active S,S stereoisomer remaining ([4]; 360 days) [%] | other results
1 | C[S+](CCC(N)C(=O)[O-])C[C@H]1O[C@@H](n2cnc3c(N)ncnc32)[C@H](O)[C@@H]1O.C[S+](CCC(N)C(=O)[O-])C[C@H]1O[C@@H](n2cnc3c(N)ncnc32)[C@H](O)[C@@H]1O.O=S(=O)(O)O.[Ca+2].[Cl-].[Cl-] (stereo partly drawn) [SAMe•0.5H2SO4•0.5CaCl2] | 0.48 | 0.76 | 1.48 | 1.98 | 3.99 | 0.23 | 0.35 | 0.57 | 0.78 | 0.99 | 89.8 | 86.8 | 83.6 | 80.6 | 77.6 | 98.2 | 97.8 | 96.7 | 93.6 | 90.8 | percentage of the active S,S stereoisomer remaining ([4]; 720 days): 88.6%; percentage of the active S,S stereoisomer remaining ([4]; T = 0): 98.2%; Moisture % K.F. [5]: 0.23%
2 | C[S+](CCC(N)C(=O)[O-])C[C@H]1O[C@@H](n2cnc3c(N)ncnc32)[C@H](O)[C@@H]1O.C[S+](CCC(N)C(=O)[O-])C[C@H]1O[C@@H](n2cnc3c(N)ncnc32)[C@H](O)[C@@H]1O.O=S(=O)(O)O.O=S(=O)([O-])[O-].[Mg+2] (stereo partly drawn) [SAMe•0.5H2SO4•0.5Mg2SO4•0.4H2O] | 0.57 | 0.65 | 0.96 | 1.40 | 2.18 | 0.23 | 0.45 | 0.65 | 0.87 | 0.99 | 90.8 | 88.8 | 85.6 | 82.6 | 78.6 | 98.2 | 97.8 | 96.8 | 95.6 | 92.6 | percentage of the active S,S stereoisomer remaining ([4]; 720 days): 88.6%; percentage of the active S,S stereoisomer remaining ([4]; T = 0): 98.2%; Moisture % K.F. [5]: 0.57%
3 | C[S+](CCC(N)C(=O)[O-])C[C@H]1O[C@@H](n2cnc3c(N)ncnc32)[C@H](O)[C@@H]1O.C[S+](CCC(N)C(=O)[O-])C[C@H]1O[C@@H](n2cnc3c(N)ncnc32)[C@H](O)[C@@H]1O.O=S(=O)(O)O.[Cl-].[Cl-].[Mg+2] (stereo partly drawn) [SAMe•0.5H2SO4•0.5MgCl2] | 0.36 | 0.70 | 1.16 | 1.66 | 2.45 | 0.12 | 0.25 | 0.35 | 0.57 | 0.79 | 89.8 | 86.8 | 83.6 | 80.6 | 77.6 | 98.2 | 97.8 | 96.8 | 93.6 | 90.6 | percentage of the active S,S stereoisomer remaining ([4]; 720 days): 87.6%; percentage of the active S,S stereoisomer remaining ([4]; T = 0): 98.2%; Moisture % K.F. [5]: 0.61%
4 | C[S+](CCC(N)C(=O)[O-])C[C@H]1O[C@@H](n2cnc3c(N)ncnc32)[C@H](O)[C@@H]1O.C[S+](CCC(N)C(=O)[O-])C[C@H]1O[C@@H](n2cnc3c(N)ncnc32)[C@H](O)[C@@H]1O.Cl.[Cl-].[Cl-].[Mg+2] (stereo partly drawn) [SAMe•0.5HCl•0.5MgCl2] | 0.56 | 0.87 | 1.45 | 1.99 | 2.67 | 0.35 | 0.43 | 0.76 | 0.90 | 1.07 | 92.5 | 89.8 | 84.5 | 82.6 | 76.6 | 98.9 | 96.5 | 94.8 | 93.7 | 92.6 | percentage of the active S,S stereoisomer remaining ([4]; 720 days): 89.5%; percentage of the active S,S stereoisomer remaining ([4]; T = 0): 98.9%; Moisture % K.F. [5]: 0.54%
5 | C[S+](CCC(N)C(=O)[O-])C[C@H]1O[C@@H](n2cnc3c(N)ncnc32)[C@H](O)[C@@H]1O.C[S+](CCC(N)C(=O)[O-])C[C@H]1O[C@@H](n2cnc3c(N)ncnc32)[C@H](O)[C@@H]1O.Cl.O=S(=O)([O-])[O-].[Mg+2] (stereo partly drawn) [SAMe•0.5HCl•0.5MgSO4] | 0.48 | 0.78 | 1.54 | 1.98 | 2.78 | 0.31 | 0.46 | 0.77 | 0.94 | 1.19 | 92.8 | 87.8 | 84.6 | 89.6 | 72.6 | 98.9 | 97.8 | 95.8 | 94.3 | 91.6 | percentage of the active S,S stereoisomer remaining ([4]; 720 days): 88.2%; percentage of the active S,S stereoisomer remaining ([4]; T = 0): 98.9%; Moisture % K.F. [5]: 0.82%
6 | C[S+](CCC(N)C(=O)[O-])C[C@H]1O[C@@H](n2cnc3c(N)ncnc32)[C@H](O)[C@@H]1O.O=S(=O)(O)O.O=S(=O)(O)O.[Ca+2].[Cl-].[Cl-] (stereo partly drawn) [SAMe•2.0H2SO4•1.0CaCl2] | 0.17 | 0.42 | 0.92 | 1.52 | 2.70 | 0.16 | 0.29 | 0.35 | 0.68 | 0.82 | 89.3 | 85.3 | 83.3 | 79.3 | 75.3 | 97.2 | 95.9 | 94.9 | 93.8 | 91.2 | percentage of the active S,S stereoisomer remaining ([4]; 720 days): 87.8%; percentage of the active S,S stereoisomer remaining ([4]; T = 0): 97.2%; Moisture % K.F. [5]: 0.35%
